Laboratory results: US20220362311A1, “OPTIMIZED BACTERIA ENGINEERED TO TREAT DISORDERS INVOLVING THE CATABOLISM OF LEUCINE, ISOLEUCINE, AND/OR VALINE” (Synlogic Operating Company, Inc., priority 2019, published 2022)
Read-outs that look alike come from different tables or passages of the source.

B1: ADH2 enzyme from S. cerevisiae: parent alcohol dehydrogenase ADH2 from S. cerevisiae (protein, UniProt P00331 2-348, looked up)
Alcohol dehydrogenase 2: SIPETQKAIIFYESNGKLEHKDIPVPKPKPNELLINVKYSGVCHTDLHAWHGDWPLPTKLPLVGGHEGAGVVVGMGENVKGWKIGDYAGIKWLNGSCMACEYCELGNESNCPHADLSGYTHDGSFQEYATADAVQAAHIPQGTDLAEVAPILCAGITVYKALKSANLRAGHWAAISGAAGGLGSLAVQYAKAMGYRVLGIDGGPGKEELFTSLGGEVFIDFTKEKDIVSAVVKATNGGAHGIINVSVSEAAIEASTRYCRANGTVVLVGLPAGAKCSSDVFNHVVKSISIVGSYVGNRADTREALDFFARGLVKSPIKVVGLSSLPEIYEKMEKGQIAGRYVVDTSK

How the values were obtained:
rat = conditions: cited from earlier work
[1] = High-throughput Adh activity assay in E. coli cell lysates; assay type: biochemical; conditions: reduction of isovaleraldehyde to isopentanol; secondary screen
Procedure: Cell growth and enzyme preparation. Strains harboring library plasmids were transformed into an E. coli T7 expression host. 5 μL/well of thawed glycerol stocks were stamped into 500 μL/well of LB+100 ug/mL Carbenicillin (LB-Carb100) in half-height deepwell plates, which were sealed with AeraSeals. Samples were incubated at 37° C. and shaken at 1000 RPM in 80% humidity overnight. 50 μL/well of the resulting precultures were stamped into 450 μL/well of LB-Carb100+1 mM IPTG in half-height deepwell plates, which were sealed with AeraSeals. Samples were incubated at 30° C. and shaken at 1000 RPM in 80% humidity overnight. […]
10 uL of lysate was transferred to a half-area flat-bottom plate containing 90 uL/well assay buffer (50 mM MOPS buffer, 0.4 mM NADH, and 30 mM isovaleraldehyde, pH 7.0). Optical absorbance measurements were taken on a plate reader at 340 nm for 10 minutes. […]
To screen the 3×˜1300-member enzyme libraries, high-throughput methods were developed to screen for LeuDH, KivD, and Adh enzyme activities in E. coli cell lysates. […] Cells were lysed, and enzyme activity was measured in cell lysates using enzyme-specific spectrophotometric assays described above in the method section. […]
For each enzyme family, the full library (˜1300 members each) was measured in biological duplicate, and hits were selected based on the highest activity in a single replicate for each enzyme. […]

Molecule	Oral LD50 (rat) (rat; oral) [mg/kg]	also measured
CCC(C)CO (stereo not drawn) [2-methylbutanol]	4170	
CCC(C)C=O (stereo not drawn) [2-methylbutyraldehyde]	6884	
CC(C)CO [Isobutanol]	3350	Oral NOAEL* (rat) (No-Observed-Adverse-Effect) (rat; oral): >1450 mg/kg/day
CC(C)C(=O)O [Isobutyric acid]	2230	
CC(C)CCO [Isopentanol]	>5000	Oral NOAEL* (rat) (No-Observed-Adverse-Effect) (rat; in vivo, po): 1250 mg/kg/day
CC(C)CC=O [Isovaleraldehyde]	5740	
B1		increase in Adh activity relative to the background lysate activity [1]: did not exhibit activity greater than the background lysate alcohol dehydrogenase activity
